Data published in ChEMBL document CHEMBL1139101, “Potent, selective, and orally active adenosine A2A receptor antagonists: arylpiperazine derivatives of pyrazolo[4,3-e]-1,2,4-triazolo[1,5-c]pyrimidines” (Bioorg Med Chem Lett, 2007).
Values after ≈ are worked out from the molar mass of the structure shown.

What was measured:
[1] = target: Adenosine receptor A2a (Homo sapiens, UniProt P29274); assay: Binding affinity to human adenosine A2A receptor
[2] = species on record: Homo sapiens; assay: Selectivity of human adenosine A2A receptor over human adenosine A1 receptor
[3] = tested on: Rattus norvegicus; assay: Inhibition of haloperidol-induced catalepsy in rat at 1 mg/kg, po after 1 hr; format: functional
[4] = tested on: Rattus norvegicus; assay: Inhibition of haloperidol-induced catalepsy in rat at 1 mg/kg, po after 4 hrs; format: functional
[5] = species on record: Homo sapiens; assay: Selectivity of human adenosine A2A receptor over human adenosine A2B receptor
[6] = species on record: Homo sapiens; assay: Selectivity of human adenosine A2A receptor over human adenosine A3 receptor
[7] = target: Adenosine receptor A2a (Rattus norvegicus) (UniProt P30543); assay: Antagonist activity at rat adenosine A2A receptor assessed as CGS 21680-induced inhibition of adenylate cyclase activity by cell-based assay; format: functional
Adenosine receptor A2a (Rattus norvegicus), sequence (P30543 whole entry): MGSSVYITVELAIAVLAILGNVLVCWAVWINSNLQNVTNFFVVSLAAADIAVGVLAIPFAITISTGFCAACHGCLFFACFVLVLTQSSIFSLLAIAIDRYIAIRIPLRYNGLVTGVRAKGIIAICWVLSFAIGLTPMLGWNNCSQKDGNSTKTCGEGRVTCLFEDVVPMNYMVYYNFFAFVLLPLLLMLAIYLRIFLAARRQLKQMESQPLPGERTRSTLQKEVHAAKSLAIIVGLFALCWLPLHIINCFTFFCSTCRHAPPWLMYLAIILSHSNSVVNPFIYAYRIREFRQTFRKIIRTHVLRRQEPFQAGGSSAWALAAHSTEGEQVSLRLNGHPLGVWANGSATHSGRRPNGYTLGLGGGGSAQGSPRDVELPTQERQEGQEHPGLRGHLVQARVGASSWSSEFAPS

[8] = target: Adenosine receptor A2a (Rattus norvegicus, UniProt P30543); assay: Binding affinity to rat adenosine A2A receptor
Adenosine receptor A2a (Rattus norvegicus, UniProt P30543), sequence (P30543 whole entry): as above

[9] = tested on: Rattus norvegicus; assay: Reversal of haloperidol-induced catalepsy in orally dosed rat after 1 hr; format: functional; settings: po, read-out: MED
[10] = target: T1, Adenosine receptor A1 (Homo sapiens, UniProt P30542); assay: Binding affinity to human adenosine A1 receptor
T1 sequence (P30542 whole entry): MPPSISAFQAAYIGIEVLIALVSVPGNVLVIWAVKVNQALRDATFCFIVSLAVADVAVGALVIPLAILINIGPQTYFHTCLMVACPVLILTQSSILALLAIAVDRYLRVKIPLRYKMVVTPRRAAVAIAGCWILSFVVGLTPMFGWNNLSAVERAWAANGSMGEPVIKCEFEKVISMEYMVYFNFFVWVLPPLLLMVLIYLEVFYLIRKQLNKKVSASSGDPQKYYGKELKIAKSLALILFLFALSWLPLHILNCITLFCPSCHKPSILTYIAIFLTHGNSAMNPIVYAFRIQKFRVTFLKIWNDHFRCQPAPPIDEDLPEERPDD

[11] = target: T2, Adenosine receptor A2b (Homo sapiens, UniProt P29275); assay: Binding affinity to human adenosine A2B receptor
T2 sequence (P29275 whole entry): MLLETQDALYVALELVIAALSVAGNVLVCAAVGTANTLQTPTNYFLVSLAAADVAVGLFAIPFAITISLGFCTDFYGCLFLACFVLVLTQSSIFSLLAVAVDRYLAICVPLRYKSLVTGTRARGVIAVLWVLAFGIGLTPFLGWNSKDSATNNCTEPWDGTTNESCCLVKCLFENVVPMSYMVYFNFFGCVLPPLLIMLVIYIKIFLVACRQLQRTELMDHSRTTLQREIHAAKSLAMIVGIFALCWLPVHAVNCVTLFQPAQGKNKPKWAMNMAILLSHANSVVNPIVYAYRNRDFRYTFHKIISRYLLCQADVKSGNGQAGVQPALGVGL

[12] = target: T3, Adenosine receptor A3 (Homo sapiens, UniProt P0DMS8); assay: Binding affinity to human adenosine A3 receptor
T3 sequence (P0DMS8 whole entry): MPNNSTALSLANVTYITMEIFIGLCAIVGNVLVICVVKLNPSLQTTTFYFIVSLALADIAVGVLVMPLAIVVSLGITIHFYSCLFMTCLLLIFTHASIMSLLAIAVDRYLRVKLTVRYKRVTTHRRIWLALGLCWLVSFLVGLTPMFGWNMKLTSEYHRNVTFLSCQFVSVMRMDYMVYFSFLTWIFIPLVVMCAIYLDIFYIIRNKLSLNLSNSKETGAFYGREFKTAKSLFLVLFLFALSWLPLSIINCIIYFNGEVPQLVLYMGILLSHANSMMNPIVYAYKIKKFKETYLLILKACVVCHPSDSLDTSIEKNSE

[13] = Solubility in water at pH 5.1; format: physicochemical
[14] = Solubility in 0.01 N Hcl; format: physicochemical; settings: buffer
[15] = Cmax in rat at 3 mg/kg, po; format: ADME, organism-based; parameters: dose 3 mg/kg, route oral; settings: in vivo
[16] = Tmax in rat at 3 mg/kg, po; format: ADME, organism-based; parameters: dose 3 mg/kg, route oral; settings: in vivo
[17] = AUC in rat at 3 mg/kg, po; format: ADME, organism-based; parameters: dose 3 mg/kg, route oral; settings: plasma
[18] = Half life in rat at 1 mg/kg, iv; format: ADME, organism-based; parameters: dose 1 mg/kg, route intravenous; settings: in vivo
[19] = Clearance in rat at 1 mg/kg, iv; format: ADME, organism-based; parameters: dose 1 mg/kg, route intravenous; settings: in vivo
[20] = Volume of distribution at steady state in rat at 1 mg/kg, iv; format: ADME, organism-based; parameters: dose 1 mg/kg, route intravenous; settings: in vivo, read-out: Vdss
[21] = Oral bioavailability in rat at 3 mg/kg; format: ADME, organism-based; settings: in vivo
[22] = Ratio of drug level in brain to plasma in rat; format: ADME

Adenosine receptor A2a (Homo sapiens, UniProt P29274), sequence (P29274 whole entry): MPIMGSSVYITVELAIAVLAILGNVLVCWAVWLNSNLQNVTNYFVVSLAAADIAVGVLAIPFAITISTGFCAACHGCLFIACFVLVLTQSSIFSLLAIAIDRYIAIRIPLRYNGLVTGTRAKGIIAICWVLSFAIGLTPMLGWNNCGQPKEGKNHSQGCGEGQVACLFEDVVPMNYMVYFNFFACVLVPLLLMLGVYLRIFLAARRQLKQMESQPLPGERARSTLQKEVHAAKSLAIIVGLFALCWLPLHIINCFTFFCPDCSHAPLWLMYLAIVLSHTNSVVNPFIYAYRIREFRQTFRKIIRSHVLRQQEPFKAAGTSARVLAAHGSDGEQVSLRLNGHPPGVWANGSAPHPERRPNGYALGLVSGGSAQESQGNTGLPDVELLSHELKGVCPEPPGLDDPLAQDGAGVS

| SMILES | Ki [1] [nM] | Ratio Ki [2] | inhibition in vivo at 1 mg/kg [3] [%] | inhibition in vivo at 1 mg/kg [4] [%] | further results |
| --- | --- | --- | --- | --- | --- |
| Nc1nc2c(cnn2CCN2CCN(c3ccc(F)c(F)c3)CC2)c2nc(-c3ccco3)nn12 | 1.4 | 169 | 45 | – | – |
| N#Cc1ccc(N2CCN(CCn3ncc4c3nc(N)n3nc(-c5ccco5)nc43)CC2)cc1 | 2.1 | 571 | 0 | – | – |
| Nc1nc2c(cnn2CCN2CCN(c3ccc(F)c(F)c3F)CC2)c2nc(-c3ccco3)nn12 | 0.6 | 1500 | 65 | 40 | – |
| Nc1nc2c(cnn2CCN2CCN(c3ccc(OCCO)cc3)CC2)c2nc(-c3ccco3)nn12 | 0.6 | 1520 | 15 | 25 | – |
| COC(C)COc1ccc(N2CCN(CCn3ncc4c3nc(N)n3nc(-c5ccco5)nc43)CC2)cc1 (racemic) | 1.6 | 539 | 55 | 20 | – |
| Nc1nc2c(cnn2CCN2CCN(c3ccc(Cl)cc3)CC2)c2nc(-c3ccco3)nn12 | 0.5 | 1350 | 11 | – | – |
| COCCOc1ccc(N2CCN(CCn3ncc4c3nc(N)n3nc(-c5ccco5)nc43)CC2)c(F)c1 | 0.4 | 1740 | 60 | 70 | – |
| Nc1nc2c(cnn2CCN2CCN(c3ccc(F)cc3)CC2)c2nc(-c3ccco3)nn12 | 1 | 101 | 8 | – | – |
| COCCOc1ccc(N2CCN(CCn3ncc4c3nc(N)n3nc(-c5ccco5)nc43)CC2)cc1 | – | – | – | – | Activity [5]: > 1000; Activity [6]: > 1000; Kb [7]: 0.7 nM |
| COCCOc1ccc(N2CCN(CCn3ncc4c3nc(N)n3nc(-c5ccco5)nc43)CC2)cc1 [PRELADENANT] | – | – | 77 | 70 | Ki [8]: 2.5 nM; minimal effective dose [9]: 0.3 mg/kg; Ki [10]: > 1000 nM; Ki [11]: > 1700 nM; Ki [12]: > 1000 nM; solubility [13]: 0.2 µM (≈ 0.101 µg/mL); solubility [14]: 2000 µM (≈ 1010 µg/mL) |
| Nc1nc2c(cnn2CCN2CCN(c3ccccc3)CC2)c2nc(-c3ccco3)nn12 | 1.6 | 343 | 52 | 0 | – |
| COCCCOc1ccc(N2CCN(CCn3ncc4c3nc(N)n3nc(-c5ccco5)nc43)CC2)cc1 | 0.6 | 1160 | 8 | 2 | – |
| C[S+]([O-])COc1ccc(N2CCN(CCn3ncc4c3nc(N)n3nc(-c5ccco5)nc43)CC2)cc1 (stereo unspecified) | 2.2 | 523 | 30 | 5 | – |
| Nc1nc2c(cnn2CCN2CCN(c3ccccc3F)CC2)c2nc(-c3ccco3)nn12 | 0.6 | 894 | 20 | 25 | – |
| Nc1nc2c(cnn2CCN2CCN(c3c(F)cc(F)cc3F)CC2)c2nc(-c3ccco3)nn12 | 1.1 | 319 | 65 | 75 | – |
| CC(=O)COc1ccc(N2CCN(CCn3ncc4c3nc(N)n3nc(-c5ccco5)nc43)CC2)cc1 | 0.8 | 427 | 15 | 10 | – |
| Nc1nc2c(cnn2CCN2CCN(c3ccc(F)cc3F)CC2)c2nc(-c3ccco3)nn12 | 0.6 | > 1600 | 75 | 80 | – |
| COCCOc1ccc(N2CCN(CCn3ncc4c3nc(N)n3nc(-c5ccco5)nc43)CC2)cc1.Cl | – | – | – | – | Cmax [15]: 762 nM; Tmax [16]: 0.25 h; AUC [17]: 1.56 µM·h; half-life [18]: 2.1 h; clearance [19]: 37 mL/min/kg; Vd [20]: 2.6 L/kg; bioavailability [21]: 57%; Kp [22]: 1 |
| Nc1nc2c(cnn2CCN2CCN(c3ccc(OCCOC4CC4)cc3)CC2)c2nc(-c3ccco3)nn12 | 0.6 | 930 | 59 | 30 | – |
| Nc1nc2c(cnn2CCN2CCN(c3ccc(O)cc3)CC2)c2nc(-c3ccco3)nn12 | 1.3 | 186 | 0 | – | – |
| CCOc1ccc(N2CCN(CCn3ncc4c3nc(N)n3nc(-c5ccco5)nc43)CC2)cc1 | 1.4 | 848 | 27 | – | – |
